Where two headings read alike, the source gives them in different places. Square brackets hold non-standard residues; d marks the D form. Peptide text beside a SMILES is read from it. 2Pal = N[C@@H](Cc1ccccn1)C(=O)O
How the values were obtained:
µOR [1] = molecular target: T1, µOR (Homo sapiens, UniProt P35372); test: cell-based; assay type: cell-based
Procedure: (§2) In brief, for cAMP inhibition assays HEK 293 (Life Technologies, Grand Island, NY, USA) cells were transiently transfected in a 1:3 ratio with FLAG-mouse δOR, or HA-mouse µOR and pGloSensor22F-cAMP plasmids (Promega, Madison, WI, USA) using Xtremegene9 (Sigma). Two days post-transfection cells (20,000 cells/well, 7.5 µL) were seeded in low volume Greiner 384-well plates (#82051-458, VWR, Batavia, IL, USA) and were incubated with Glosensor reagent (Promega, 7.5 µL, 2% final concentration) for 90 min at room temperature. […] For β-arrestin recruitment assays, CHO-human µOR PathHunter β-arrestin 2 cells or CHO-human δOR PathHunter β-arrestin 2 cells (DiscoverX, Fremont, CA, USA) were plated (2,500 cells/well, 10 µL) one day prior to stimulation with 2.5 µL drug solution for 90 min at 37 °C/5% CO2, after which cells were incubated with 6 µL cell PathHunter assay buffer (DiscoverX) for 60 min at room temperature as per the manufacturer’s protocol. Luminescence for each of these assays was measured using a FlexStation3 plate reader (Molecular Devices, Sunnyvale, CA, USA).
(§3) All data are presented as means ± standard error of the mean, and analysis was performed using GraphPad Prism 8 software (GraphPad Software, La Jolla, CA). For in vitro assays, nonlinear regression was conducted to determine pIC50 (cAMP) or pEC50 (β-arrestin 2 recruitment). […] The averages of each independent run were counted as a single experiment and combined to provide a composite curve in favor of providing a ‘representative’ curve. In each experimental run, a positive control/reference compound was utilized to allow the data to be normalized and to calculate the log bias value. A minimum of three independent values were obtained for each compound in each of the cellular assays.

µOR [2] = molecular target: T1, µOR; test: Bias factor calculation (operational model, cAMP vs β-arrestin 2); details: DAMGO as reference, >1 = more G protein-biased
Procedure: Bias factors were calculated using the operational model equation in Prism 8 to calculate Log R (τ/KA) (Table S2) as previously described [12]. […] A bias factor > 1 meant that the agonist was more G protein-biased than the reference compound; A bias factor < 1 meant that the agonist was less G protein-biased than the reference compound.

Rat plasma stability = details: for Degradation Products (First Appearance): rat plasma, UPLC-mass spectrometry, time of first appearance in parentheses; for half-life: rat, plasma
Procedure: Peptides were synthesized using an Aapptec Focus XC automated peptide synthesizer coupled with a heating system using a solid phase peptide synthesis protocol using Fmoc chemistry. Preparative RP-HPLC was performed using an appropriate column and solvent system (described below) and final purity of peptides was determined by UV area % from UPLC analysis. Peptides were purified by Teledyne ISCO EZ Prep system on RediSep® C18 Prep column (30 × 250 mm, 100 Å). […] Plasma stability was also assessed using the above UPLC column and solvent gradient program using a Waters H class Plus Acquity UPLC system coupled with a QDa detector using protocol B.
Sprague Dawley rat plasma containing K2-ethylenediaminetetraacetic acid (Innovative Research, MI, USA) was transferred into 300 µL aliquots and stored at −20 °C until use. […] After adding analog, an aliquot of the mixture was removed at each indicated time point (0, 5, 10, 15, 20, 30, 60, 120, 240 min) and immediately quenched with 100 μL of a methanol solution containing 20 μM Fmoc-Leu-OH as an internal standard. […] Then, the filtrate was transferred into vials and a 5 μL sample of the resulting solution was analyzed on an UPLC system coupled with a QDa detector. […] Determination of half-life (t1/2) was carried out by using the GraphPad Prism one-phase decay method.

FLAG-mouse δOR = molecular target: T2, FLAG-mouse δOR (Mus musculus, UniProt P32300); test: cAMP GloSensor inhibition assay in HEK 293 cells; assay type: cell-based; details: for IC50: HEK 293, forskolin 30 µM; for LogR (δOR) cAMP: operational model Log R (τ/KA); for cAMP δOR Efficacy (%+SD): relative to Leu-enkephalin = 100
T2 construct: FLAG; expressed in transfected cells; host or cells: HEK 293
T2 sequence (P32300 whole entry): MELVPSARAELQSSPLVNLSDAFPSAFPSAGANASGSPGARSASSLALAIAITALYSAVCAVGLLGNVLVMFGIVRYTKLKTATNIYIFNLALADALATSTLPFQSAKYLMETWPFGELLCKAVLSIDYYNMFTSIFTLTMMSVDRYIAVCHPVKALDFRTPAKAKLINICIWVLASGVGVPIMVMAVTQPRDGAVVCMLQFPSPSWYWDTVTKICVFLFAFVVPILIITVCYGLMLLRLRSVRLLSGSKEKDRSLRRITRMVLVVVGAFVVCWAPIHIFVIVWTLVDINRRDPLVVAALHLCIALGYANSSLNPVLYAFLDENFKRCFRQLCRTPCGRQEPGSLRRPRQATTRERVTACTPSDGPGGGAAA
Procedure: as §2, §3

HA-mouse µOR = molecular target: T3, HA-mouse µOR (Mus musculus, UniProt P42866); test: cAMP GloSensor inhibition assay in HEK 293 cells; assay type: cell-based; details: for LogR (µOR) cAMP: operational model Log R (τ/KA); for cAMP µOR Efficacy (%+SD): relative to DAMGO = 100; for IC50: HEK 293, forskolin 30 µM
T3 construct: HA; expressed in transfected cells; host or cells: HEK 293
T3 sequence (P42866 whole entry): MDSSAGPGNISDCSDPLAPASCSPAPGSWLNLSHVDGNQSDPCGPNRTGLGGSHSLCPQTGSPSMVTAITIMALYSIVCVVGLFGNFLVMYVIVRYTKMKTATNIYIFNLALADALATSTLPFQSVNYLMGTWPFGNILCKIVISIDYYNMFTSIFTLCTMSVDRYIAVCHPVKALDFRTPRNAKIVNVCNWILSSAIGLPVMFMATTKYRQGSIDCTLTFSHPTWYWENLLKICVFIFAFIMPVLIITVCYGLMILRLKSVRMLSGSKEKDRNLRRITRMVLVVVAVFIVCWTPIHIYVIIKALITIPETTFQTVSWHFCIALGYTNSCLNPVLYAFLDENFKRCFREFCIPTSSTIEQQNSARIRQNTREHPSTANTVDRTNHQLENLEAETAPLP
Procedure: as §2, §3

µOR [3] = molecular target: T1, µOR; test: Competition radioligand binding, [3H]DAMGO
Procedure: (§1) Next, 100 µL of membrane suspension containing 7 µg protein was added to the agonist wells and incubated for 90 min at room temperature. The reaction mixture was then filtered over a GF-B filter plate (Perkin Elmer) followed by four quick washes with ice-cold 50 mM Tris HCl. The plate was dried overnight, after which 50 µL scintillation fluid (Ultimagold uLLT) was added and radioactivity was counted on a Packard TopCount NXT scintillation counter. All working solutions were prepared in a radioligand assay buffer containing 50 mM Tris HCl, 10 mM MgCl2, and 1 mM ethylenediaminetetraacetic acid at pH 7.4.

δOR [4] = molecular target: T4, δOR (Homo sapiens, UniProt P41143); test: Competition radioligand binding, [3H]DPDPE
T4 sequence (P41143 whole entry): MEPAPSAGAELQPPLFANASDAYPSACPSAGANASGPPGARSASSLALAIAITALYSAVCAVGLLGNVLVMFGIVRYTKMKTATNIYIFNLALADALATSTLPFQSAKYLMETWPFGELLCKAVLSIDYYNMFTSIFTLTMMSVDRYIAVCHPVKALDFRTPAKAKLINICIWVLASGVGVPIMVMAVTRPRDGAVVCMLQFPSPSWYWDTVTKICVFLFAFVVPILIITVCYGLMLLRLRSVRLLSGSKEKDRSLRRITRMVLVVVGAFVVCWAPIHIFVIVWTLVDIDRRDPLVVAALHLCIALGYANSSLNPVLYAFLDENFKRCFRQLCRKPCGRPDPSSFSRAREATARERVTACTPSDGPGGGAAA
Procedure: as §1

δOR [5] = molecular target: T4, δOR; test: PathHunter β-arrestin 2 recruitment assay in CHO cells
Procedure: as §2, §3

T1 sequence (P35372 whole entry): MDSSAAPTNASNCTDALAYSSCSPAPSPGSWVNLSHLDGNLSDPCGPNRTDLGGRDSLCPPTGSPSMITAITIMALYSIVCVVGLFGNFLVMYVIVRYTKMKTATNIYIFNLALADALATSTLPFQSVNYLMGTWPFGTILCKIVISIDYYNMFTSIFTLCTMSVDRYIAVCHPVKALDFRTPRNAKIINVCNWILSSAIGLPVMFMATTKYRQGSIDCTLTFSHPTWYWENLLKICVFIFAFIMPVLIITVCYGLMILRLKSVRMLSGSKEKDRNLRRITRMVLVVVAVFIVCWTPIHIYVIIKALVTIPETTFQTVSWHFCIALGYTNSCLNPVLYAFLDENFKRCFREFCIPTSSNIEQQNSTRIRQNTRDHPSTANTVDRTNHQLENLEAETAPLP

Structure (SMILES)	EC50 (µOR [1]) [nM]	LogR (µOR) β-arr2 (µOR [1])	β-Arrestin 2 µOR Efficacy (% + SEM) (µOR [1]) [%]	Bias Factor µOR (DG = Ref) (µOR [2])	Degradation Products (First Appearance) (Rat plasma stability)	half-life (Rat plasma stability) [min]	IC50 (FLAG-mouse δOR; read-out: cAMP IC50 (nM) δOR) [nM]	LogR (δOR) cAMP (FLAG-mouse δOR)	cAMP δOR Efficacy (%+SD) (FLAG-mouse δOR) [%]	LogR (µOR) cAMP (HA-mouse µOR)	cAMP µOR Efficacy (%+SD) (HA-mouse µOR) [%]	IC50 (HA-mouse µOR; read-out: cAMP IC50 (nM) µOR) [nM]	Ki (µOR [3]) [nM]	other results
CC(C)C[C@H](NC(=O)[C@H](Cc1cccc(F)c1)NC(=O)CNC(=O)CNC(=O)[C@@H](N)Cc1ccc(O)cc1)C(=O)O [Compound 1a, H2N-Tyr-Gly-Gly-(meta-F)Phe-Leu-OH]	575	5.8	75 ± 13	22.2	Gly-Gly-(meta-F)Phe-Leu (5 min) (meta-F)Phe-Leu (60 min)	82.3	0.39	9.4	95 ± 6	8.0	98 ± 6	–	–	IC50 (FLAG-mouse δOR; read-out: cAMP pIC50 ± SEM (δOR) (converted)): 0.339 nM
CC(C)C[C@H](NC(=O)[C@H](Cc1cccc(Cl)c1)NC(=O)CNC(=O)CNC(=O)[C@@H](N)Cc1ccc(O)cc1)C(=O)O [Compound 1b, H2N-Tyr-Gly-Gly-(meta-Cl)Phe-Leu-OH]	67.6	7.2	96 ± 8	0.3	Gly-Gly-(meta-Cl)Phe-Leu (5 min) (meta-Cl)Phe-Leu (30 min)	37.8	0.022	10.6	94 ± 5	7.5	99 ± 7	30.2	–	–
CC(C)C[C@H](NC(=O)[C@H](Cc1cccc(Br)c1)NC(=O)CNC(=O)CNC(=O)[C@@H](N)Cc1ccc(O)cc1)C(=O)O [Compound 1c, H2N-Tyr-Gly-Gly-(meta-Br)Phe-Leu-OH]	35.5	7.2	79 ± 6	1.2	Gly-Gly-(meta-Br)Phe-Leu (5 min) (meta-Br)Phe-Leu (15 min)	21.5	0.03	10.5	96 ± 4	8.1	104 ± 11	–	0.13	IC50 (HA-mouse µOR; read-out: cAMP pIC50 ± SEM (µOR) (converted)): 10 nM
CC(C)C[C@H](NC(=O)[C@H](Cc1cccc(I)c1)NC(=O)CNC(=O)CNC(=O)[C@@H](N)Cc1ccc(O)cc1)C(=O)O [Compound 1d]	46.8	6.6	70 ± 3	3.2	Gly-Gly-(meta-I)Phe-Leu (5 min) (meta-I)Phe-Leu (15 min)	13.2	0.025	–	97 ± 4	8.0	94 ± 11	4.27	0.14	–
Cc1cccc(C[C@H](NC(=O)CNC(=O)CNC(=O)[C@@H](N)Cc2ccc(O)cc2)C(=O)N[C@@H](CC(C)C)C(=O)O)c1 [Compound 1e]	186	6.1	71 ± 3	11.5	Gly-Gly-(meta-Me)Phe-Leu (5 min) (meta-Me)Phe-Leu (20 min)	39.5	0.039	10	92 ± 8	8.1	85 ± 10	3.72	0.14	–
COc1cccc(C[C@H](NC(=O)CNC(=O)CNC(=O)[C@@H](N)Cc2ccc(O)cc2)C(=O)N[C@@H](CC(C)C)C(=O)O)c1 [Compound 1f]	589	5.6	67 ± 3	–	Gly-Gly-(meta-OMe)Phe-Leu (5 min) (meta-OMe)Phe-Leu (20 min)	46.1	0.14	9.8	98 ± 10	7.4	87 ± 5	8.12	–	Bias Factor µOR (DG = Ref) (µOR [2]; listed as 1f (OMe)): 8.4
CC(C)C[C@H](NC(=O)[C@H](Cc1cccc(C(F)(F)F)c1)NC(=O)CNC(=O)CNC(=O)[C@@H](N)Cc1ccc(O)cc1)C(=O)O [Compound 1g]	56.2	6.6	71 ± 3	4.3	Gly-Gly-(meta-CF3)Phe-Leu (5 min) (meta- CF3)Phe-Leu (30 min)	44.5	0.11	9.7	92 ± 8	8.1	90 ± 4	2.45	–	–
CC(C)C[C@H](NC(=O)[C@H](Cc1cccc(C#N)c1)NC(=O)CNC(=O)CNC(=O)[C@@H](N)Cc1ccc(O)cc1)C(=O)O [Compound 1h]	158	5.9	68 ± 4	5.4	Gly-Gly-(meta-CN)Phe-Leu (5 min) (meta-CN)Phe-Leu (20 min)	33	0.35	9.3	100 ± 3	7.5	92 ± 13	12	0.3	–
CC(C)C[C@H](NC(=O)[C@H](Cc1cccc([N+](=O)[O-])c1)NC(=O)CNC(=O)CNC(=O)[C@@H](N)Cc1ccc(O)cc1)C(=O)O [Compound 1i]	537	5.3	60 ± 6	–	Gly-Gly-(meta-NO2)Phe-Leu (5 min) (meta- NO2)Phe-Leu (20 min)	28.8	0.47	9.0	99 ± 6	7.2	–	49	0.98	Bias Factor µOR (DG = Ref) (µOR [2]; listed as 1i (NO2)): 11.1
CC(C)C[C@H](NC(=O)[C@H](Cc1ccccn1)NC(=O)CNC(=O)CNC(=O)[C@@H](N)Cc1ccc(O)cc1)C(=O)O [Compound 1j] (H-YGG[2Pal]L-OH; N-terminus and C-terminus assumed)	–	–	–	–	(2-pyridyl)Ala-Leu (5 min) Gly-Gly-(2-pyridyl)Ala-Leu (30 min)	26.8	4.57	–	–	–	–	40.7	9.12	EC50 (µOR [1]; CHO PathHunter, read-out: β-Arrestin 2 EC50 (nM) µOR): 1350 nM; Ki (δOR [4]): 6.17 nM; Binding Selectivity (δOR vs µOR) (δOR [4]; ratio of Ki values): 1.5; G Protein Selectivity (δOR vs µOR) (FLAG-mouse δOR; cAMP potency δOR vs µOR): 8.9; EC50 (δOR [5]): 100 nM
C[C@@H](NC(=O)[C@@H](N)Cc1ccc(O)cc1)C(=O)NCC(=O)N(C)[C@@H](Cc1ccccc1)C(=O)NCCO [DAMGO, (D-Ala^2, N-MePhe^4, Gly-ol) enkephalin, reference compound]	–	–	–	1	–	–	–	–	–	7.8	100	–	–	β-Arrestin 2 µOR Efficacy (% + SEM) (µOR [1]; relative to DAMGO = 100%): 100%
CC(C)C[C@H](NC(=O)[C@H](Cc1ccccc1)NC(=O)CNC(=O)CNC(=O)[C@@H](N)Cc1ccc(O)cc1)C(=O)O [Leu^5-enkephalin, Tyr^1-Gly^2-Gly^3-Phe^4-Leu^5, reference compound]	–	–	–	–	Gly-Gly-Phe-Leu (5 min) Phe-Leu (10 min)	–	–	–	100	–	100	–	–	cAMP µOR Efficacy (%+SD) (HA-mouse µOR; listed as Leu-enkephalin): 100 ± 9%
